Consider two molecules from ChEMBL document CHEMBL4265871, “Novel alkylated azoles as potent antifungals” (Eur J Med Chem, 2017).

One data set deals with A549. As to the kind of experiment: Toxicity in human A549 cells assessed as reduction in cell viability up to 7.8 ug/ml incubated for 24 hrs by resazurin dye based assay. As to conditions: a549, 24 h. In general terms: Resazurin is reduced to fluorescent resorufin, in cell work by metabolically active cells.
In a further data set the test system is BEAS-2B. Kind of data set: Toxicity in human BEAS2B cells assessed as reduction in cell viability up to 7.8 ug/ml incubated for 24 hrs by resazurin dye based assay.
Data set [1] relates to Candida albicans. Kind of data set: Fungicidal activity against Candida albicans ATCC 10231 assessed as reduction in microbial growth at 4 times MIC incubated for 6 hrs by time kill assay. It is filed as functional.
Data set [2] deals with Candida albicans. As to the kind of experiment: Effect on sterol composition in Candida albicans ATCC 10231 assessed as eburicol level at 0.125 ug/mL incubated for […] by GC-MS analysis.
Data set [3] deals with Candida albicans. Kind of data set: Effect on sterol composition in Candida albicans ATCC 10231 assessed as lanosterol level at 0.125 ug/mL incubated for 10 mins by GC-MS analysis (reference value: 4.17%).
For data set [4], the system named is Candida albicans. As to the kind of experiment: Effect on sterol composition in Candida albicans ATCC 64124 assessed as ergosterol level at 1.95 ug/mL incubated for 10 mins by LC-MS analysis (reference value: 54.72%).
Data set [5] deals with Candida albicans. Kind of data set: Effect on sterol composition in Candida albicans ATCC 64124 assessed as unknown sterol level at 1.95 ug/mL incubated for 10 mins by LC-MS analysis (reference value: 2.67 to 6.98%).
Data set [6] concerns Candida albicans. Kind of data set: Effect on sterol composition in Candida albicans ATCC 10231 assessed as 14-alpha-methyl-ergosta-8,24(28)dien-3beta,6alpha-diol level at 0.125 ug/mL incubated for […] by GC-MS analysis.

Take `CCCCCCCCC(O)(Cn1cncn1)c1ccc(F)cc1F` (stereo not drawn): the Activity result in the data set on A549 and in the data set with BEAS-2B was “Non-Toxic” throughout.
Consider `CCCCCCC(O)(Cn1cncn1)c1ccc(Cl)cc1Cl` (stereo not drawn), for which the Activity was 1.25 log10CFU with Candida albicans [1]; 2.93% in the data set with Candida albicans [2]; 19.3% in the data set with Candida albicans [3]; 5.73% in the data set on Candida albicans [4]; 4.25 - 13.04% with Candida albicans [5]; 18.81% in the data set on Candida albicans [6].
